Where “and” joins values, the source holds several entries; their conditions need not be identical. Identical values can stand only once.
Tests used:
[1] = target: T1, wild-type (WT) AT1 receptor (Rattus norvegicus, UniProt P25095); assay: inositol phosphate (IP) production in COS1 cells expressing WT AT1 receptor; conditions: 1 µM compound, vs basal IP production
T1 sequence (P25095 1-359): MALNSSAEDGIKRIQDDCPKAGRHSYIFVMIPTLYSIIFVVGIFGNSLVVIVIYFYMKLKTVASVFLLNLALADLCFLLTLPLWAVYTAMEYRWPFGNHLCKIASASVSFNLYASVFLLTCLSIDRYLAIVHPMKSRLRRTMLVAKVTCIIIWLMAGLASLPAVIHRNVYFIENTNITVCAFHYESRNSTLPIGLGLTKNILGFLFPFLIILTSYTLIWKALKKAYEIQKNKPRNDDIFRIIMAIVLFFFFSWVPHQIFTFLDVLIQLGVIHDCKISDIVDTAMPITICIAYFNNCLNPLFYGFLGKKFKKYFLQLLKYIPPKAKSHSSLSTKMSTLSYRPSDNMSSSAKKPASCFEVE
Description: The test compounds were added 1 h before the measurement of IP.
The WT and mutant AT1 receptors were transiently transfected into COS1 cells using Lipofectamine 2000 liposomal reagent (Roche Applied Science) according to the manufacturer’s instructions.
Cells expressing the WT and mutant AT1 receptors were incubated for 30 minutes at 22°C with or without the indicated concentrations of ARBs. The cells were washed-out once with the use of excess cold HBSS, and used in an IP production study. Total soluble IP was measured by the perchloric acid extraction method, as described previously [16].

[2] = target: T2, AT1 wild-type (WT) receptor (Rattus norvegicus, UniProt P25095); assay: 125I-[Sar1,Ile8]AngII competition binding, wild-type receptor; conditions: WT; for Kd: COS1 cell membranes, 100 pM 125I-[Sar1,Ile8]AngII, 1 h 22°C, read-out: Binding affinity (Kd); for Kd ratio relative to olmesartan (in parentheses): compound Kd / olmesartan Kd
T2 construct: expressed in transfected cells; host or cells: COS1
T2 sequence (P25095 1-359): T1 sequence (P25095 1-359)
Description: The Kd and Bmax values of receptor binding were determined by ^125I-[Sar^1, Ile^8] […] Membranes expressing the WT or mutant AT1 receptors were incubated with 100 pM ^125I-[Sar^1, Ile^8] […] The binding reaction was terminated by filtering the incubation mixture through Whatman GF/C glass filters, and the residues were extensively washed further with binding buffer. The bound ligand fraction was determined from the counts per minute (cpm) remaining on the membrane. Binding kinetics values were determined as previously described.

AT1 receptor = conditions: Cys76 accessible; cited from earlier work

SMILES	Pharmacological behaviour toward IP production (agonism / neutral antagonism / inverse agonism) [1]	Kd [2] [nM]	Kd ratio relative to olmesartan (in parentheses) [2]	% inhibition of 125I-[Sar1,Ile8]AngII binding by MTSEA+ reagent (AT1 receptor)
CCCc1nc(C(C)(C)O)c(C(=O)O)n1Cc1ccc(-c2cc(Cc3ccc(OCOC)cc3)ccc2-c2nnn[nH]2)cc1 [R781254]	inverse agonism	396 ± 80	172 fold	
CCCc1nc(C(C)(C)O)c(C(N)=O)n1Cc1ccc(-c2cc(Cc3ccccc3)ccc2-c2nnn[nH]2)cc1 [R801832]	agonism	276 ± 22	100 fold and 120 fold	
CS(=O)(=O)SCCN [MTSEA^+, methanethiosulphonate ethyl-ammonium]				approximately 30%
CCCc1nc(C(C)(C)O)c(C(=O)O)n1Cc1ccc(-c2cc(Cc3ccc(O)cc3)ccc2-c2nnn[nH]2)cc1 [R781253]	inverse agonism	21 ± 10	9.1 fold	
CCCc1nc(C(C)C)c(C(N)=O)n1Cc1ccc(-c2cc(Cc3ccc(O)cc3)ccc2-c2nnn[nH]2)cc1 [R795100]	agonism	179 ± 84		
CCCc1nc(C(C)(C)O)c(C(=O)O)n1Cc1ccc(-c2cc(Cc3cccc(O)c3)ccc2-c2nnn[nH]2)cc1 [R791212]	neutral antagonism	125 ± 26		
